Results taken from the NIST ThermoML archive (doi:10.1016/j.jct.2005.06.015).

Experiments:
[1] = 101 kPa, Liquid
[2] = refractive index (Na D-line) (dimensionless); settings: 101.33 kPa, Liquid, Standard Abbe refractometry
[3] = xn = mol fraction of the nth substance listed; settings: 101 kPa, Liquid
[4] = refractive index (Na D-line) (dimensionless); xn = mol fraction of the nth substance listed; settings: 101 kPa, Liquid, Standard Abbe refractometry

CCCCCCCCCCO [decan-1-ol]
Settings | mass density, [1] [kg/m3] | refractive index, [2]
293.15 K | 829.84 | 1.43694
303.15 K | 822.83 | 1.43364

CCCCCCCO [heptan-1-ol] + ClC(Cl)C(Cl)Cl
x2 = 0
Settings | mass density, [3] [kg/m3] | refractive index, [4]
293.15 K | 822.14 | 1.42397
303.15 K | 815.41 | 1.42047

ClC(Cl)C(Cl)Cl [1,1,2,2-tetrachloroethane]
Settings | mass density, [1] [kg/m3] | refractive index, [2]
293.15 K | 1594.27 | 1.49387
303.15 K | 1574.85 | 1.48887

ClC(Cl)C(Cl)Cl [1,1,2,2-tetrachloroethane] + CCCCCCO
Settings | mass density, [3] [kg/m3] | refractive index, [4]
293.15 K, x1 = 0.1003 | 886.07 | 1.4247
293.15 K, x1 = 0.2011 | 955.51 | 1.43135
293.15 K, x1 = 0.3006 | 1025.9 | 1.438
293.15 K, x1 = 0.4004 | 1098.46 | 1.44486
293.15 K, x1 = 0.5 | 1173.27 | 1.45201
293.15 K, x1 = 0.6009 | 1251.57 | 1.45957
293.15 K, x1 = 0.7002 | 1331.64 | 1.46735
293.15 K, x1 = 0.8004 | 1415.64 | 1.47556
293.15 K, x1 = 0.9011 | 1503.8 | 1.48444
293.15 K, x1 = 1 | 1594.27 | 1.49387
303.15 K, x1 = 0.1003 | 877.89 | 1.42076
303.15 K, x1 = 0.2011 | 946.24 | 1.42723
303.15 K, x1 = 0.3006 | 1015.59 | 1.43378
303.15 K, x1 = 0.4004 | 1087.1 | 1.4405
303.15 K, x1 = 0.5 | 1160.79 | 1.4475
303.15 K, x1 = 0.6009 | 1237.85 | 1.45495
303.15 K, x1 = 0.7002 | 1316.58 | 1.46264
303.15 K, x1 = 0.8004 | 1399.12 | 1.47082
303.15 K, x1 = 0.9011 | 1485.78 | 1.4796
303.15 K, x1 = 1 | 1574.85 | 1.48887

CCCCCCCCO [octan-1-ol] + ClC(Cl)C(Cl)Cl
x2 = 0
Settings | mass density, [3] [kg/m3] | refractive index, [4]
293.15 K | 825 | 1.42941
303.15 K | 818.09 | 1.42563

CCCCCCO [hexan-1-ol]
Settings | mass density, [1] [kg/m3] | refractive index, [2]
293.15 K | 818.72 | 1.41807
303.15 K | 811.73 | 1.41423

CCCCCCCCCCO [decan-1-ol] + ClC(Cl)C(Cl)Cl
x2 = 0
Settings | mass density, [3] [kg/m3] | refractive index, [4]
293.15 K | 829.84 | 1.43694
303.15 K | 822.83 | 1.43364

CCCCCCCCO [octan-1-ol]
Settings | mass density, [1] [kg/m3] | refractive index, [2]
293.15 K | 825 | 1.42941
303.15 K | 818.09 | 1.42563

CCCCCCCO [heptan-1-ol]
Settings | mass density, [1] [kg/m3] | refractive index, [2]
293.15 K | 822.14 | 1.42397
303.15 K | 815.41 | 1.42047

CCCCCO [pentan-1-ol]
Settings | mass density, [1] [kg/m3] | refractive index, [2]
293.15 K | 814.72 | 1.40976
303.15 K | 807.6 | 1.40592

CCCCCO [pentan-1-ol] + ClC(Cl)C(Cl)Cl
x2 = 0
Settings | mass density, [3] [kg/m3] | refractive index, [4]
293.15 K | 814.72 | 1.40976
303.15 K | 807.6 | 1.40592

ClC(Cl)C(Cl)Cl [1,1,2,2-tetrachloroethane] + CCCCCCCO
Settings | mass density, [3] [kg/m3] | refractive index, [4]
293.15 K, x1 = 0.1022 | 883.03 | 1.42952
293.15 K, x1 = 0.1995 | 943.76 | 1.43494
293.15 K, x1 = 0.3002 | 1009.72 | 1.4406
293.15 K, x1 = 0.4008 | 1079.02 | 1.44661
293.15 K, x1 = 0.5001 | 1151.23 | 1.45297
293.15 K, x1 = 0.599 | 1227.43 | 1.45976
293.15 K, x1 = 0.6996 | 1310.04 | 1.46717
293.15 K, x1 = 0.7999 | 1398.24 | 1.47525
293.15 K, x1 = 0.9015 | 1494.17 | 1.48421
293.15 K, x1 = 1 | 1594.27 | 1.49387
303.15 K, x1 = 0.1022 | 875.27 | 1.42581
303.15 K, x1 = 0.1995 | 934.97 | 1.43106
303.15 K, x1 = 0.3002 | 999.87 | 1.43653
303.15 K, x1 = 0.4008 | 1068.12 | 1.44244
303.15 K, x1 = 0.5001 | 1139.25 | 1.44861
303.15 K, x1 = 0.599 | 1214.28 | 1.45521
303.15 K, x1 = 0.6996 | 1295.52 | 1.46254
303.15 K, x1 = 0.7999 | 1382.11 | 1.4705
303.15 K, x1 = 0.9015 | 1476.3 | 1.47937
303.15 K, x1 = 1 | 1574.85 | 1.48887
